Results taken from patent US9247759B2, “Identification of human T2R receptors that respond to bitter compounds that elicit the bitter taste in compositions, and the use thereof in assays to identify compounds that inhibit (block) bitter taste in compositions and use thereof” (SENOMYX, INC., priority 2007, dated 2016).
Like-named read-outs stand apart in the source and are kept apart here.

Columns and labels:
hT2R14 [1] = target: T1, hT2R14 (Homo sapiens (Human), UniProt Q9NYV8); assay: hT2R panel inhibition, transient HEK293 G16g44, agonist Aristolochic Acid 2 μM; assay type: cell-based; conditions: HEK293, compound at 25 μM; receptor activated to EC80 with the corresponding agonist; read-out: screening result against bitter receptor 14
T1 sequence (Q9NYV8 whole entry): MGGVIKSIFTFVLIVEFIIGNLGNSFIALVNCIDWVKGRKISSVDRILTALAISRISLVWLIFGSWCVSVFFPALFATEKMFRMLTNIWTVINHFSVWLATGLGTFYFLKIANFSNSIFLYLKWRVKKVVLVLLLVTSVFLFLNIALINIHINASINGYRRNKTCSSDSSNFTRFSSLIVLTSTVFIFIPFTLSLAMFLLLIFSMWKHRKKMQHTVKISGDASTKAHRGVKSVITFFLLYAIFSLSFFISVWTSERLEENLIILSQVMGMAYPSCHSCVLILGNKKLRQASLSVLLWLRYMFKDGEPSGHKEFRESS
Procedure, shortened: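 Each hT2R was transiently transfected into HEK293 cells stably expressing G16g44 and assayed functionally for inhibition of agonist response. Agonists were applied at EC80: andrographolide at 0.5 mM for hT2R8 and aristolochic acid at 2 μM for hT2R14.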

hT2R14 [2] = target: T1, hT2R14; assay: hT2R14 antagonist high-throughput FLIPR assay, stable cell line with G16g44, agonist aristolochic acid; assay type: cell-based
Procedure, shortened: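 HEK293 cells stably expressing hT2R14 with chimeric G16g44 were stimulated with aristolochic acid (3 μM), giving 70-80% of maximal receptor activity. Test compounds were added together with the agonist, and antagonism was read as fluorescent calcium signal on FLIPR.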

hT2R61 = hT2R61 (Homo sapiens (Human), UniProt P59537); assay: hT2R panel inhibition, transient HEK293 G16g44, agonist Aristolochic Acid 25 nM; assay type: cell-based; conditions: HEK293, compound at 25 μM; receptor activated to EC80 with the corresponding agonist; read-out: screening result against bitter receptor 61
hT2R61, sequence (P59537 whole entry): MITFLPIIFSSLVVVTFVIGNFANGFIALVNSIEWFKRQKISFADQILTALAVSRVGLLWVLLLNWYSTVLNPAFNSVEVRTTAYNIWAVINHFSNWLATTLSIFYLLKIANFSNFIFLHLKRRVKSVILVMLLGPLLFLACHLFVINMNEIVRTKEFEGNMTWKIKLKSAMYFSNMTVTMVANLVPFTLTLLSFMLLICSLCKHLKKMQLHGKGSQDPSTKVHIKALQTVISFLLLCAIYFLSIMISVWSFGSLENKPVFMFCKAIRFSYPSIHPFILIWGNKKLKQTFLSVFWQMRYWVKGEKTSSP
Procedure, shortened: (§1)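 Agonist concentrations were set at EC80 for each receptor. Activity was compared with and without the test compound, and the reduction recorded as inhibition, across 22 individually transfected human T2Rs.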

hT2R5 = hT2R5 (Homo sapiens (Human), UniProt Q9NYW4); assay: hT2R panel inhibition, transient HEK293 G16g44, agonist Picoline 10 mM; assay type: cell-based; conditions: HEK293, compound at 25 μM; receptor activated to EC80 with the corresponding agonist; read-out: screening result against bitter receptor 5
hT2R5, sequence (Q9NYW4 whole entry): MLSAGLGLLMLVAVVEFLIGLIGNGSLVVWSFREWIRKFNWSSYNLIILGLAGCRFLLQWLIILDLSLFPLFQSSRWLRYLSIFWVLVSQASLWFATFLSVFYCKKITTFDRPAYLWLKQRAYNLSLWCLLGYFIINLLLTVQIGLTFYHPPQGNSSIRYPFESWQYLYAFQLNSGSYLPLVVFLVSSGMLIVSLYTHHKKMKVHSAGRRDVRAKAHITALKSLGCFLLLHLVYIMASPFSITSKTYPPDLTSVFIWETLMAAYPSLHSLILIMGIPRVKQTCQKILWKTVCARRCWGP
Procedure, shortened: as §1

hT2R55 = assay: hT2R panel inhibition, transient HEK293 G16g44, agonist Cinchonine 150 μM; assay type: cell-based, human; conditions: compound at 25 μM; receptor activated to EC80 with the corresponding agonist
Procedure, shortened: as §1

hT2R3 = hT2R3 (Homo sapiens (Human), UniProt Q9NYW6); assay: hT2R panel inhibition, transient HEK293 G16g44, agonist Chloroquine pH6.5 50 μM; assay type: cell-based; conditions: HEK293, compound at 25 μM; receptor activated to EC80 with the corresponding agonist; read-out: screening result against bitter receptor 3
hT2R3, sequence (Q9NYW6 whole entry): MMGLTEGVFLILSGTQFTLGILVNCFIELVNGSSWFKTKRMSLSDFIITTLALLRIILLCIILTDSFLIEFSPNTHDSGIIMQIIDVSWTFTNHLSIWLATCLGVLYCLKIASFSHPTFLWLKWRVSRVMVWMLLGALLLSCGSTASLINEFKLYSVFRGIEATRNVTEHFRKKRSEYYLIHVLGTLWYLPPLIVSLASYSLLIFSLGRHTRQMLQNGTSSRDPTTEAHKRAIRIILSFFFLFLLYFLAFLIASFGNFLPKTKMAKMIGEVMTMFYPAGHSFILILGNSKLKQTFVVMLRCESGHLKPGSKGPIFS
Procedure, shortened: as §1

hT2R44 = assay: hT2R panel inhibition, transient HEK293 G16g44, agonist Denatonium 0.5 μM; assay type: cell-based, human; conditions: compound at 25 μM; receptor activated to EC80 with the corresponding agonist
Procedure, shortened: as §1

hT2R64 = hT2R64 (Homo sapiens (Human), UniProt P59538); assay: hT2R panel inhibition, transient HEK293 G16g44, agonist Aristolochic Acid 1 μM; assay type: cell-based; conditions: HEK293, compound at 25 μM; receptor activated to EC80 with the corresponding agonist; read-out: screening result against bitter receptor 64
hT2R64, sequence (P59538 whole entry): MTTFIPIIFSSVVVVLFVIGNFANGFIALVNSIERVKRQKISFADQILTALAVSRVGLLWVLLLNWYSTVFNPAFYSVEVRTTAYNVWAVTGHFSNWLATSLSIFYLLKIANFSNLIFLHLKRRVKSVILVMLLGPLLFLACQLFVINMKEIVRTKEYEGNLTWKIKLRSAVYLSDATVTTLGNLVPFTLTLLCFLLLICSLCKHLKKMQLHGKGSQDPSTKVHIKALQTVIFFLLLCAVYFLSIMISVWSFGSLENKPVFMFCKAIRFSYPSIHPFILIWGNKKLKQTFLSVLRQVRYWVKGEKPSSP
Procedure, shortened: as §1

hT2R63 = assay: hT2R panel inhibition, transient HEK293 G16g44, agonist Caffeine 1 mM or Andrographolide 100 μM; assay type: cell-based, human; conditions: compound at 25 μM; receptor activated to EC80 with the corresponding agonist
Procedure, shortened: as §1

hT2R71 = hT2R71 (Homo sapiens (Human), UniProt P59536); assay: hT2R panel inhibition, transient HEK293 G16g44, agonist Picric Acid 10 μM; assay type: cell-based; conditions: HEK293, compound at 25 μM; receptor activated to EC80 with the corresponding agonist; read-out: screening result against bitter receptor 71
hT2R71, sequence (P59536 whole entry): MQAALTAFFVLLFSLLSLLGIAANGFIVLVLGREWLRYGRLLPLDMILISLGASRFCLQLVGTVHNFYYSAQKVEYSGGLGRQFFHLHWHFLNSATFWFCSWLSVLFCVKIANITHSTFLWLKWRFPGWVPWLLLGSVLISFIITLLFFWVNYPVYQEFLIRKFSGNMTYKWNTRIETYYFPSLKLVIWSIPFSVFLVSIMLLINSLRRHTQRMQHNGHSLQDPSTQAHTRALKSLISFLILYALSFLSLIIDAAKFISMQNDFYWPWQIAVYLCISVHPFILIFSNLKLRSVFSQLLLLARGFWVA
Procedure, shortened: as §1

hT2R54 = assay: hT2R panel inhibition, transient HEK293 G16g44, agonist Ranitidine 5 mM; assay type: cell-based, human; conditions: compound at 25 μM; receptor activated to EC80 with the corresponding agonist
Procedure, shortened: as §1

hT2R13 = hT2R13 (Homo sapiens (Human), UniProt Q9NYV9); assay: hT2R panel inhibition, transient HEK293 G16g44, agonist Oxyphenonium 1 mM; assay type: cell-based; conditions: HEK293, compound at 25 μM; receptor activated to EC80 with the corresponding agonist; read-out: screening result against bitter receptor 13
hT2R13, sequence (Q9NYV9 whole entry): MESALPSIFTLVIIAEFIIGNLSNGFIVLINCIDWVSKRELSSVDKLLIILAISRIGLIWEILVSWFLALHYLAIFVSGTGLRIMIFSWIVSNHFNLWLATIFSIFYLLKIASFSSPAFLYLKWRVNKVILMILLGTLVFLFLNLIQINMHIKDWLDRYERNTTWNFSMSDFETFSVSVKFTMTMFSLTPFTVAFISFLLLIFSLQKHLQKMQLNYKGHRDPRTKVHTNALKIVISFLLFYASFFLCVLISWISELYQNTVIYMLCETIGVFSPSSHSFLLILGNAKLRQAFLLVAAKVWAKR
Protocol: (§2) Specifically, in order to evaluate the inhibitory selectivity of the Compound C compound, this compound was tested against 22 human T2Rs which were deorphaned by Senomyx. These receptors and the bitter ligands that activate these human T2Rs are reported in earlier patent applications which are incorporated by reference herein. These 22 human T2Rs are hT2R1, 3, 4, 5, 7, 8, 9, 10, 13, 14, 16, 44, 51, 54, 55, 61, 63, 64, 65, 67, 71 and 75. The amino acid and nucleic acid sequences of all of these T2Rs may be found in these earlier patent applications. These human T2Rs were each individually transiently transfected into HEK293 cells that stably express the promiscuous G protein G16g44 and functional assays were effected using these receptors as disclosed in these same patent applications. […] The ligands were used at EC80 concentration levels. The list of bitter ligands utilized and the tested ligand concentrations are contained in Table 5 of this example.
(§3) Relating to the foregoing, FIG. 5 contains experimental results wherein Compound C was tested with different agonist compounds. The inhibition activity is represented by the reduction of receptor activity in the presence of Compound C. […] These 13 hT2Rs are hT2R3, 7, 10, 14, 16, 44, 51, 55, 61, 63, 64, 65, and 71.

hT2R10 = hT2R10 (Homo sapiens (Human), UniProt Q9NYW0); assay: hT2R panel inhibition, transient HEK293 G16g44, agonist Strychnine 50 μM; assay type: cell-based; conditions: HEK293, read-out: screening result against bitter receptor 10, compound at 25 μM; receptor activated to EC80 with the corresponding agonist
hT2R10, sequence (Q9NYW0 whole entry): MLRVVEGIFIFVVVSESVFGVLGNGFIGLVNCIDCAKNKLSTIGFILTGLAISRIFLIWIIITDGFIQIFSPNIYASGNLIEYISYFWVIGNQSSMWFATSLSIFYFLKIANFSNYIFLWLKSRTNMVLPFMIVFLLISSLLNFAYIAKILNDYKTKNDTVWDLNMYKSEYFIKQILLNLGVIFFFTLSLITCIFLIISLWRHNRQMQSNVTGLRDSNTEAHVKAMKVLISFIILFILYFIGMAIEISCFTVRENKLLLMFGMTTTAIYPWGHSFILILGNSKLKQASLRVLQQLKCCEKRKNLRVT

hT2R16 = hT2R16 (Homo sapiens (Human), UniProt Q9NYV7); assay: hT2R panel inhibition, transient HEK293 G16g44, agonist Salicin 1 mM; assay type: cell-based; conditions: HEK293, compound at 25 μM; receptor activated to EC80 with the corresponding agonist; read-out: screening result against bitter receptor 16
hT2R16, sequence (Q9NYV7 whole entry): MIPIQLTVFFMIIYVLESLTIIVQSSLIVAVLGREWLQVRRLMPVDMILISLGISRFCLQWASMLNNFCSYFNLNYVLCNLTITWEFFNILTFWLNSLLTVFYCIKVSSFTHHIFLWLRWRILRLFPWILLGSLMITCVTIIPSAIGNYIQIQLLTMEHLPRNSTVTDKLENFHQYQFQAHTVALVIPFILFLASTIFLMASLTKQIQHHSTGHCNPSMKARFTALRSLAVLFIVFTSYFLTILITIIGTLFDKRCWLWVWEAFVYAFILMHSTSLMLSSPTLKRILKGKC
Procedure, shortened: as §1

hT2R65 = assay: hT2R panel inhibition, transient HEK293 G16g44, agonist Oleuropein 1 mM; assay type: cell-based, human; conditions: compound at 25 μM; receptor activated to EC80 with the corresponding agonist
Procedure, shortened: as §1

hT2R75 = hT2R75 (Homo sapiens (Human), UniProt P59540); assay: hT2R panel inhibition, transient HEK293 G16g44, agonist Strychnine 1 μM; assay type: cell-based; conditions: HEK293, read-out: screening result against bitter receptor 75, compound at 25 μM; receptor activated to EC80 with the corresponding agonist
hT2R75, sequence (P59540 whole entry): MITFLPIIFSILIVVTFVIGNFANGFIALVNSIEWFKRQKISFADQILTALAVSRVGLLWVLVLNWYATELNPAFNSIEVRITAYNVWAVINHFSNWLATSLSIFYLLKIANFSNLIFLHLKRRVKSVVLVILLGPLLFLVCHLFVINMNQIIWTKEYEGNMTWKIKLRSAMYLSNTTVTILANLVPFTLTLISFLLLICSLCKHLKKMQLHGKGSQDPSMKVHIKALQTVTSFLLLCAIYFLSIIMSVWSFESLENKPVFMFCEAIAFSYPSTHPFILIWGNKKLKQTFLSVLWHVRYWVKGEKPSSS

hT2R9 = hT2R9 (Homo sapiens (Human), UniProt Q9NYW1); assay: hT2R panel inhibition, transient HEK293 G16g44, agonist Ofloxacin 1 mM; assay type: cell-based; conditions: HEK293, compound at 25 μM; receptor activated to EC80 with the corresponding agonist; read-out: screening result against bitter receptor 9
hT2R9, sequence (Q9NYW1 whole entry): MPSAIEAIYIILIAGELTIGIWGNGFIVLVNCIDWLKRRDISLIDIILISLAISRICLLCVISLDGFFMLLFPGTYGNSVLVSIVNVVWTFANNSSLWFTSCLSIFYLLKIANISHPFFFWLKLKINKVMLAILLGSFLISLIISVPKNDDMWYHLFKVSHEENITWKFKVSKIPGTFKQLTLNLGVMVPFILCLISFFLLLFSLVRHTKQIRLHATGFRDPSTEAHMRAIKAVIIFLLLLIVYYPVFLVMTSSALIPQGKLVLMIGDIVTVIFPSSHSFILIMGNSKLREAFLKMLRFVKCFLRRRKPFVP
Protocol: as §2, §3

hT2R4 = hT2R4 (Homo sapiens (Human), UniProt Q9NYW5); assay: hT2R panel inhibition, transient HEK293 G16g44, agonist Chloroquine pH6.5 5 mM; assay type: cell-based; conditions: HEK293, compound at 25 μM; receptor activated to EC80 with the corresponding agonist; class symbols; read-out: screening result against bitter receptor 4
hT2R4, sequence (Q9NYW5 whole entry): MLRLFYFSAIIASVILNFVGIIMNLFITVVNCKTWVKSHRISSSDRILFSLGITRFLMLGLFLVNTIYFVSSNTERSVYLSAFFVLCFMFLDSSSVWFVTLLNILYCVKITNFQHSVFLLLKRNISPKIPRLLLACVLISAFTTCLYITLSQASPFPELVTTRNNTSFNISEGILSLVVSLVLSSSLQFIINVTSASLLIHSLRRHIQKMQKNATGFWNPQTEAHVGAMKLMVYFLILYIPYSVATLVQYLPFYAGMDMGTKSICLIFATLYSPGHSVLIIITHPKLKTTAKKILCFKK
Procedure, shortened: as §1

hT2R51 = hT2R51 (Homo sapiens (Human), UniProt P59533); assay: hT2R panel inhibition, transient HEK293 G16g44, agonist Prop 2.5 μM; assay type: cell-based; conditions: HEK293, compound at 25 μM; receptor activated to EC80 with the corresponding agonist; read-out: screening result against bitter receptor 51
hT2R51, sequence (P59533 whole entry): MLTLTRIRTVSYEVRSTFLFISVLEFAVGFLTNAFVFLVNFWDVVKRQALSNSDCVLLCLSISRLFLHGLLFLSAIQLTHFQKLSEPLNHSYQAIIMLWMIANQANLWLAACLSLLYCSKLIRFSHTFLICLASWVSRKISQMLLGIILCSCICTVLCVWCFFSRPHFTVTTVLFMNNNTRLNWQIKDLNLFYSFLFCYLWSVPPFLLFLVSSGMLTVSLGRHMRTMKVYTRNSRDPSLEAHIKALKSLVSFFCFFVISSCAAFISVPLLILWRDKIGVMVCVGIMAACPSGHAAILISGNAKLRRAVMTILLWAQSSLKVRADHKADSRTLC
Procedure, shortened: as §1

hT2R7 = hT2R7 (Homo sapiens (Human), UniProt Q9NYW3); assay: hT2R panel inhibition, transient HEK293 G16g44, agonist Chloroquine pH6.5 10 mM; assay type: cell-based; conditions: HEK293, compound at 25 μM; receptor activated to EC80 with the corresponding agonist; read-out: screening result against bitter receptor 7
hT2R7, sequence (Q9NYW3 whole entry): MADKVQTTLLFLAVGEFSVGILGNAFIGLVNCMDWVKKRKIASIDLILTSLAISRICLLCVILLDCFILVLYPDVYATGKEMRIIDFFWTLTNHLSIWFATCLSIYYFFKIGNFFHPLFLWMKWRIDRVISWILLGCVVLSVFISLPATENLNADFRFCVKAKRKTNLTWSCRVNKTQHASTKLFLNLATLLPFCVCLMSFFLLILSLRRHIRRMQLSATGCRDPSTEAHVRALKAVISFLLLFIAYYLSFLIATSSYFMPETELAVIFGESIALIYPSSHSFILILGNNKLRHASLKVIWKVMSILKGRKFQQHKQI
Procedure, shortened: as §1

hT2R67 = assay: hT2R panel inhibition, transient HEK293 G16g44, agonist Andrographolide 5 μM; assay type: cell-based, human; conditions: compound at 25 μM; receptor activated to EC80 with the corresponding agonist
Procedure, shortened: as §1

| Structure (SMILES) | inhibition at 25 µM (hT2R14 [1]) | inhibition at 25 µM (hT2R61) | inhibition at 25 µM (hT2R5) | screening result against bitter receptor 55 (hT2R55) | inhibition at 25 µM (hT2R3) | screening result against bitter receptor 44 (hT2R44) | inhibition at 25 µM (hT2R64) | screening result against bitter receptor 63 (hT2R63) | inhibition at 25 µM (hT2R71) | screening result against bitter receptor 54 (hT2R54) | inhibition at 25 µM (hT2R10) | inhibition at 25 µM (hT2R16) | screening result against bitter receptor 65 (hT2R65) | inhibition at 25 µM (hT2R75) | inhibition at 25 µM (hT2R9) | IC50 (hT2R14 [2]; Table C, read-out: hT2R14 IC50) | inhibition at 25 µM (hT2R4) | inhibition at 25 µM (hT2R51) | inhibition at 25 µM (hT2R7) | screening result against bitter receptor 67 (hT2R67) | also measured |
| --- | --- | --- | --- | --- | --- | --- | --- | --- | --- | --- | --- | --- | --- | --- | --- | --- | --- | --- | --- | --- | --- |
| COc1ccc(CN(Cc2ccc(OC)c(F)c2)S(=O)(=O)c2ccc(C(=O)O)cc2)cc1 [Example 5-41, 4-(N-(3-fluoro-4-methoxybenzyl)-N-(4-methoxybenzyl)sulfamoyl)-benzoic acid] | > 80% | > 80% | 20 to 40% | +++ (60% to 80% inhibition = +++) | 40 to 60% | +++ (60% to 80% inhibition = +++) | 60 to 80% | ++++ (80% or greater inhibition = ++++) | 40 to 60% | + (20% to 40% inhibition = +) | 40 to 60% | 20 to 40% |  |  |  |  |  |  |  |  | IC50 (hT2R14 [2]; read-out: IC50 on hT2R14 bitter receptor): 1110 nM; inhibition at 25 µM (hT2R13): 20 to 40% |
| COc1cccc(CN(Cc2ccc(C(=O)O)cc2)S(=O)(=O)c2ccccc2)c1 [Example 5-101, 4-((N-(3-methoxybenzyl)phenylsulfonamido)methyl) benzoic acid] | > 80% | > 80% | 40 to 60% | +++ (60% to 80% inhibition = +++) | 60 to 80% | +++ (60% to 80% inhibition = +++) | > 80% | +++ (60% to 80% inhibition = +++) | 60 to 80% | ++ (40% to 60% inhibition = ++) | 60 to 80% | 40 to 60% | +++ (60% to 80% inhibition = +++) | 40 to 60% | 20 to 40% | 345 nM | 40 to 60% | 40 to 60% | 60 to 80% | ++ (40% to 60% inhibition = ++) |  |
| O=C(O)c1ccc(CN(Cc2cccc(F)c2)S(=O)(=O)c2ccccc2)cc1 [Example 5-104, 4-((N-(3-fluorobenzyl)phenylsulfonamido)methyl)-benzoic acid] | > 80% | > 80% | 40 to 60% | +++ (60% to 80% inhibition = +++) | 40 to 60% | +++ (60% to 80% inhibition = +++) | > 80% | ++ (40% to 60% inhibition = ++) | 60 to 80% | + (20% to 40% inhibition = +) | 40 to 60% | 20 to 40% | +++ (60% to 80% inhibition = +++) | 40 to 60% | 20 to 40% | 406 nM | 40 to 60% | 20 to 40% | 40 to 60% | ++ (40% to 60% inhibition = ++) |  |
